Data on one molecule can be found in publication PMC7913927, “Leishmanicidal Activity of Betulin Derivatives in Leishmania amazonensis; Effect on Plasma and Mitochondrial Membrane Potential, and Macrophage Nitric Oxide and Superoxide Production” (Microorganisms, 2021).

Entries after “also recorded” stand apart in the source; their conditions may differ.

What is called CC50 is the concentration giving 50% cytotoxicity. As usually defined, the GI50 is the concentration at which growth is held to half of that of the control.

For one data set, the system named is J774.1 macrophages. The experiment in a line: Cytotoxicity (Alamar Blue) in macrophages. Format: cell-based, murine. The note with it: 72 h. Here is the method: In flat-bottom 96-well culture plates, J774.1 macrophages were seeded at a cell density of 5 × 10^4 mL^−1 (10,000 macrophages/well) in 200 µL of RPMIc. After 24 h at 37 °C, 5% CO2, medium was replaced by 180 µL of RPMIc, without phenol red, and increasing concentrations of test compounds in 2-µL volumes. […] At least two independent experiments were performed in duplicate. Based on the inhibition of cell growth caused by the tested compounds, the percentage of growth inhibition compared to untreated cells was calculated. […] Selectivity indices (SI) were calculated, dividing the macrophage CC50 by the parasites GI50 (SI = CC50/GI50).
In general terms: Alamar Blue is a resazurin reagent that responds to reducing activity.

Data set [1] has as its system L. (L.) amazonensis LTB0016, VE98MR and VE2000MM promastigotes. The experiment in a line: Mitochondrial membrane potential (ΔΨm), JC-1 fluorescence. The settings on record: promastigotes of LTB0016, VE98MR, 48 h, 18: 1 and 2 µM, 22: 2 and 4 µM, vs untreated. The class given is cell-based, Leishmania amazonensis. The procedure:
To evaluate the mitochondrial membrane potential (ΔΨm), the fluorescent compound JC-1 (5,5′,6,6′-tetrachloro-1,1′,3,3′-tetraethylbenzimidazolocarbocyanine iodide) was used, according to a modification of a previously described method. Exponential phase promastigotes were suspended at 26 °C, in RPMIc without phenol red, in a volume of 1 mL, at a cell density of 1 × 10^7 parasites mL^−1. The parasites were left to grow for 48 h, in the presence and absence of the test compounds. Then, after centrifuging (500× g for 10 min) and washing the parasites twice with PBS, they were resuspended in 200 µL of HEPES-G, and placed in 96-well plates. […] Finally, fluorescence was measured in a Victor^2 Wallac spectrofluorometer (Perkin Elmer, Turku, Finland) at the appropriate wavelengths (ex: 485 nm/em: 535 and 580 nm). As the mitochondrial membrane is polarized, JC-1 produces intra-mitochondrial aggregates “J-aggregates” that emit a red fluorescence (λ 590 nm). Mitochondrial membrane depolarization induces JC-1 monomeric conformation in the cytoplasm, then the fluorescence turns green (λ 530 nm). The red/green ratio of fluorescence then is an indirect measurement of the mitochondrial membrane potential. A more depolarized mitochondria means a lower ratio of red/green fluorescence.
Relative fluorescence (RF) was calculated, where RF = 580 nm fluorescence/535 nm fluorescence (red/green). […]

For data set [2], the system named is J774.1 macrophages, healthy or infected with LTB0016, VE98MR or VE2000MM. The experiment in a line: Nitric oxide (NO) production, Griess reaction. Format: cell-based, murine. The settings on record: non-infected and infected macrophages; 48 h; 18: 1 and 2 µM; 22: 2 and 4 µM. Here is the method:
Following a previously described procedure, infected and uninfected macrophage cultures were treated with test compounds to analyze their effect in Leishmania host cell nitric oxide (NO) production. J774.1 macrophages, at the third day of growth, were collected and seeded in flat-bottom 96-well culture plates, at a density of 1 × 10^6 cells mL^−1 (2 × 10^5 macrophages/well), in 200 µL of RPMIc. The plates were incubated for 2 h; once the supernatant was discarded, the medium was replaced with 200 µL of RPMIc mixed with infectious promastigotes in the stationary phase of growth (1 × 10^7 parasites/mL, 2 × 10^6 parasites/well), so that the ratio macrophage: parasites was 1:10 [41]. The plates were then incubated for 4 h, the medium was replaced with fresh RPMIc and the test compounds were applied, according to the different treatment groups. The plates were kept in incubation for 48 h, at 37 °C and 5% CO2.
From the culture supernatants, 50-µL aliquots were recovered and transferred to a new 96-well plate to perform the Griess reaction, 50 µL of Solution 1 [1% sulfanilamide dissolved in 2.5% phosphoric acid] was added, incubated for 5 min at RT and in the dark. […] Finally, the colorimetric reading was performed at 550 nm. […] Levels of NO2^− (expressed as µM of NO2^−) were calculated from a calibration curve constructed with increasing concentrations of sodium nitrite (NaNO2). […]
For orientation: Griess reagent forms a coloured azo dye with nitrite.

Data set [3] shares this test system. The data set is described as follows: Superoxide (O2−) production, ferricytochrome c reduction. The class given is cell-based, murine. The settings on record: LTB0016- and VE98MR-infected macrophages; 48 h; 18: 1 and 2 µM. The procedure:
The intracellular oxidative burst was evaluated by the production of the superoxide anion O2^−, using the method of reduction of ferricytochrome c, previously described. Macrophages from preceding experiments were used after removing the supernatant; the cells pretreated with compounds or AmB as positive control of the experiment were resuspended in 100 µL of Hanks saline (HBSS: 137 mM NaCl, 5.4 mM KCl, 1 mM MgSO4⋅7H2O, 1.3 mM CaCl2⋅H2O, 0.3 mM Na2HPO4, 0.44 mM KH2PO4, 4.2 mM NaHCO3, 5 mM glucose, pH 7.2) and incubated for 1 h in the presence of 2 mg mL^−1 (160 µM) of cytochrome c type III, at 37 °C and 5% CO2. The supernatant was saved to measure the change in optical density at 550 nm. Three independent experiments were performed in duplicate. The superoxide anion concentration was calculated using the reduced molar extinction coefficient of cytochrome c, 21 mM^−1 cm^−1. Therefore, [O2^−] = (ΔOD/6.3) × 100, where ΔOD is the variation of the optical density (reading-blank), and the result obtained corresponds to the concentration of superoxide anion expressed in nanomoles of O2^− released/2 × 10^5 cells. MLF (5 µM) and amphotericin-B (AmB, 0.1 µM), known to induce NO production in macrophages, were included as controls.

The test system of data set [4] is L. (L.) donovani axenic amastigotes. The note with it: cited from earlier work.
In data set [5] the test system is L. (V.) braziliensis promastigotes, reference strain MHOM/BR/LTB300. The note with it: reference strain MHOM/BR/LTB300; cited from earlier work.

In turn, `C=C(C)C1CCC2(C=NO)CCC3(C)C(CCC4C5(C)CCC(=NO)C(C)(C)C5CCC43C)C12` (stereo not drawn) [Compound 18] had a CC50 in the data set on J774.1 macrophages of 48.1 µM. In addition, the “Effect on mitochondrial membrane potential (ΔΨm)” value in data set [1] is “significantly depolarized; also recorded: depolarizes ΔΨm in a concentration-dependent way”. In addition, the “Nitric oxide (NO) production by macrophages” value in data set [2] is “neither 18 nor 22 induced nitric oxide production in infected macrophages; also recorded: not capable of inducing NO production in any of the strains tested; also recorded: not capable of inducing NO production for any of the strains tested”. Further, the “Superoxide production, infected macrophages” value in data set [3] is “induced superoxide production in infected macrophages; also recorded: inducing an oxidative burst and thus increasing O2^− production”. In data set [4], the GI50 is 22.8 µM. Also, the “active concentration in L. (L.) braziliensis” value in data set [5] is listed as “less than 10 µM”.
